This passage reports IC50 results from patent EP4782453A1 (Beyang Therapeutics Co., Ltd., priority 2023, dated 2025).

By IC50 is commonly meant the midpoint of a concentration-inhibition curve.

For one assay, the target named is T1, Menin-MLL (Homo sapiens, UniProt O00255).
T1 construct: His-Menin (M1-L615 end); purchased BIORTUS BP9210
T1 sequence (O00255 1-615 isoform O00255-1): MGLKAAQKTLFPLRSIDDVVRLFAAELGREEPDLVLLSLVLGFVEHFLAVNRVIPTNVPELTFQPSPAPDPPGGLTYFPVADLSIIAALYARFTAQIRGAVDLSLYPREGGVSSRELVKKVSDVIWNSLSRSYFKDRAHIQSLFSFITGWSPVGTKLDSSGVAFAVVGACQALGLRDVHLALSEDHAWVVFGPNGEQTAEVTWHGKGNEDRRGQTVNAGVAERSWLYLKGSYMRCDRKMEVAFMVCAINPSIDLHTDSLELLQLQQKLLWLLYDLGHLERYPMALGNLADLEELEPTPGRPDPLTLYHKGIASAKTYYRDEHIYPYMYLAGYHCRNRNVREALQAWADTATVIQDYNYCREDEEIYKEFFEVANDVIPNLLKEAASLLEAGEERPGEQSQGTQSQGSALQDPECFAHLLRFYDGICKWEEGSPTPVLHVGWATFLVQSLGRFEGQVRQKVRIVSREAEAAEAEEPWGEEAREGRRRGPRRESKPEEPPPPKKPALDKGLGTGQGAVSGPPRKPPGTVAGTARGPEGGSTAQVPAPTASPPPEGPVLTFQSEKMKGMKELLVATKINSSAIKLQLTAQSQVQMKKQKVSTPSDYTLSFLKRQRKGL
The assay is described as follows: Inhibitory activity against Menin-MLL binding (fluorescence polarization). The note with it: Menin-MLL IC50, fluorescence polarization; 150 nM His-Menin, 15 nM FITC-MLL; 25°C for 60 min. The method, boiled down: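 His-Menin (M1-L615, 150 nM) preincubated with compound 15 min at 25 °C in HEPES pH 7.5, 50 mM NaCl, 1 mM DTT, 0.01% BSA, then 15 nM FITC-MLL4-43 peptide added for 60 min at 25 °C. Fluorescence polarization read; IC50 from 4-parameter logistic fit, duplicates.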
A general note: In fluorescence polarisation assays a small probe gives low polarisation when free and higher when bound to something large.
Compound `CCN(C(=O)c1cc(F)ccc1-n1c(=O)n(CC2CN(C(CCCN3CCN(CCO)CC3)C(C)C)C2)c2c(C)cncc21)C(C)C` (stereo not shown) [Example 415, N-ethyl-5-fluoro-2-{1-[(1-{6-[4-(2-hydroxyethyl)piperazin-1-yl]-2-methylhexan-3-yl}azacyclobutan-3-yl)methyl]-7-methyl-2-oxo-1H,2H,3H-imidazo[4,5-c]pyridin-3-yl} N-(isopropyl)benzamide] came in with an IC50 of 160 nM.

Staying with this assay, now noted: fluorescence polarization; 150 nM His-Menin, 15 nM FITC-MLL; 25°C for 60 min; read-out: Menin-MLL IC50.
As for `CCN(C(=O)c1cc(F)ccc1-c1cc(C2CN([C@H](CCCN3CCN(C)CC3)C(C)C)C2)cn2c(C)nnc12)C(C)C` [Example 360-1, N-ethyl-5-fluoro-2-(3-methyl-6-{1-[(3R)-2-methyl-6-(4-methylpiperazin-1-yl)hexan-3-yl]azacyclobutan-3-yl}-[1,2,4]triazolo[4,3-a]pyridin-8-yl)-N-(isopropyl)benzamide], the 50% inhibitory concentration (IC50) was determined as 83 nM.

Turning to `CCN(C(=O)c1cc(F)ccc1-c1cc(C2CN([C@@H](CCCN3CCN(C)CC3)C(C)C)C2)cn2c(C)nnc12)C(C)C` [Example 360-2, N-ethyl-5-fluoro-2-(3-methyl-6-{1-[(3S)-2-methyl-6-(4-methylpiperazin-1-yl)hexan-3-yl]azacyclobutan-3-yl}-[1,2,4]triazolo[4,3-a]pyridin-8-yl)-N-(isopropyl)benzamide], the concentration for half-maximal inhibition (IC50) was determined as 2690 nM.

Take `Cc1nc(F)c2c(-c3ccc(F)cc3C(=O)N3CCOC[C@H]3C)cc(C3CN([C@@H](CN4CCN(C(=O)OC(C)(C)C)CC4)C(C)C)C3)cn12` [Example 366-1, 4-[(2R)-2-[3-(1-fluoro-8-{4-fluoro-2-[(3R)-3-methylmorpholin-4-carbonyl]phenyl}-3-methylimidazo[1,5-a]pyridin-6-yl)azacyclobutan-1-yl]-3-methylbutyl]piperazin-1-tert-butyl carboxylate]: the IC50 came to 1150 nM.

Consider `Cc1nc(F)c2c(-c3ccc(F)cc3C(=O)N3CCOC[C@H]3C)cc(C3CN([C@H](CN4CCN(C(=O)OC(C)(C)C)CC4)C(C)C)C3)cn12` [Example 366-2, 4-[(2S)-2-[3-(1-fluoro-8-{4-fluoro-2-[(3R)-3-methylmorpholin-4-carbonyl]phenyl}-3-methylimidazo[1,5-a]pyridin-6-yl)azacyclobutan-1-yl]-3-methylbutyl]piperazin-1-tert-butyl carboxylate], for which the IC50 is 38.5 nM.

Take `Cc1nc(F)c2c(-c3ccc(F)cc3C(=O)N3CCOC[C@H]3C)cc(C3CN([C@@H](CN4CCNCC4)C(C)C)C3)cn12` [Example 367-1, (3R)-4-[5-fluoro-2-(1-fluoro-3-methyl-6-{1-[(2R)-3-methyl-1-(piperazin-1-yl)butan-2-yl]azacyclobutan-3-yl}imidazo[1,5-a]pyridin-8-yl)benzoyl]-3-methylmorpholine]: the concentration for half-maximal inhibition (IC50) was 3.9 nM.

Consider `Cc1nc(F)c2c(-c3ccc(F)cc3C(=O)N3CCOC[C@H]3C)cc(C3CN([C@H](CN4CCNCC4)C(C)C)C3)cn12` [Example 367-2, (3R)-4-[5-fluoro-2-(1-fluoro-3-methyl-6-{1-[(2S)-3-methyl-1-(piperazin-1-yl)butan-2-yl]azacyclobutan-3-yl}imidazo[1,5-a]pyridin-8-yl)benzoyl]-3-methylmorpholine], for which the concentration for half-maximal inhibition (IC50) was 4 nM.

Turning to `Cc1nc(F)c2c(-c3ccc(F)cc3C(=O)N3CCOC[C@H]3C)cc(C3CN([C@@H](CN4CCN(C)CC4)C(C)C)C3)cn12` [Example 368-1, (3R)-4-[5-fluoro-2-(1-fluoro-3-methyl-6-{1-[(2R)-3-methyl-1-(4-methylpiperazin-1-yl)butan-2-yl]azacyclobutan-3-yl}imidazo[1,5-a]pyridin-8-yl)benzoyl]-3-methylmorpholine], the 50% inhibitory concentration (IC50) was 23 nM.

Regarding `Cc1nc(F)c2c(-c3ccc(F)cc3C(=O)N3CCOC[C@H]3C)cc(C3CN(C(CC[C@@H]4COCCN4C)C(C)C)C3)cn12` (stereo partly drawn) [Example 372, (3R)-4-{5-fluoro-2-[1-fluoro-3-methyl-6-(1-{4-methyl-1-[(3R)-4-methylmorpholin-3-yl]pentan-3-yl}azacyclobutan-3-yl)imidazo[1,5-a]pyridin-8-yl]benzoyl}-3-methylmorpholine], the IC50 was 32 nM.

Take `Cc1nc(F)c2c(-c3ccc(F)cc3C(=O)N3CCOC[C@H]3C)cc(C3CN(C(CC[C@H]4COCCN4C)C(C)C)C3)cn12` (stereo partly drawn) [Example 374, (3R)-4-{5-fluoro-2-[1-fluoro-3-methyl-6-(1-{4-methyl-1-[(3S)-4-methylmorpholin-3-yl]pentan-3-yl}azacyclobutan-3-yl)imidazo[1,5-a]pyridin-8-yl]benzoyl}-3-methylmorpholine]: the IC50 amounted to 26 nM.

Take `CCN(C(=O)c1cc(F)ccc1-c1cc(C2CN([C@H](CCCN3CCOCC3)C(C)C)C2)cn2c(C)ncc12)C(C)C` [Example 375, N-ethyl-5-fluoro-2-(3-methyl-6-{1-[(3R)-2-methyl-6-(morpholin-4-yl)hexan-3-yl]azacyclobutan-3-yl}imidazo[1,5-a]pyridin-8-yl)-N-(isopropyl)benzamide]: the half-maximal inhibitory concentration (IC50) turned out to be 3.9 nM.

Consider `CCN(C(=O)c1cc(F)ccc1-c1cc(C2CN([C@H](CCCN3CCN(C4CC4)CC3)C(C)C)C2)cn2c(C)ncc12)C(C)C` [Example 376], for which the half-maximal inhibitory concentration (IC50) worked out at 3.1 nM.

As for `CC(=O)N1CC2CCC(C1)N2CCC[C@H](C(C)C)N1CC(c2cc(-c3ccc(F)cc3C(=O)N3CCOC[C@H]3C)c3cnn(C)c3c2)C1` [Example 383], the IC50 turned out to be 17 nM.

Regarding `CC(=O)N1CC2CC(C1)N2CCC[C@H](C(C)C)N1CC(c2cc(-c3ccc(F)cc3C(=O)N3CCOC[C@H]3C)c3cnn(C)c3c2)C1` [Example 386], the concentration for half-maximal inhibition (IC50) is 20 nM.

Turning to `CCN(C(=O)c1cc(F)ccc1-c1cc(C2CN([C@H](CCCN3CC4(COC4)C3)C(C)C)C2)cn2c(C)ncc12)C(C)C` [Example 388], the concentration for half-maximal inhibition (IC50) amounted to 2.1 nM.

For the compound `CCN(C(=O)c1cc(F)ccc1-c1cc(C2CN([C@H](CCCN3CC4CC(C3)N4C)C(C)C)C2)cn2c(C)ncc12)C(C)C` [Example 392], the concentration for half-maximal inhibition (IC50) amounted to 2 nM.

As for `CCN1CCN(CCC[C@@H](C(C)C)N2CC(c3cc(-c4ccc(F)cc4C(=O)N(CC)C(C)C)c4cnn(C)c4c3)C2)CC1` [Example 394-1, N-ethyl-2-(6-{1-[(3S)-6-(4-ethylpiperazin-1-yl)-2-methylhexan-3-yl]azacyclobutan-3-yl}-1-methyl-1H-indazol-4-yl)-5-fluoro-N-(isopropyl)benzamide], the half-maximal inhibitory concentration (IC50) turned out to be 188 nM.

Take `CCN1CCN(CCC[C@H](C(C)C)N2CC(c3cc(-c4ccc(F)cc4C(=O)N(CC)C(C)C)c4cnn(C)c4c3)C2)CC1` [Example 394-2, N-ethyl-2-(6-{1-[(3R)-6-(4-ethylpiperazin-1-yl)-2-methylhexan-3-yl]azacyclobutan-3-yl}-1-methyl-1H-indazol-4-yl)-5-fluoro-N-(isopropyl)benzamide]: the IC50 was determined as 3.2 nM.

Consider `CCN(C(=O)c1cc(F)ccc1-c1cc(C2CN([C@H](CCCN3CCN(S(C)(=O)=O)CC3)C(C)C)C2)cn2c(C)ncc12)C(C)C` [Example 397], for which the IC50 came to 4.2 nM.

For the compound `CCN(C(=O)c1cc(F)ccc1-c1cc(C2CN([C@@H](CCCN3CCC(OC)CC3)C(C)C)C2)cc2c1cnn2C)C(C)C` [Example 399-1, N-ethyl-5-fluoro-2-(6-{1-[(3S)-6-(4-methoxypiperidin-1-yl)-2-methylhexan-3-yl]azacyclobutan-3-yl}-1-methyl-1H-indazol-4-yl)-N-(isopropyl)benzamide], the IC50 stood at 110 nM.

Take `CCN(C(=O)c1cc(F)ccc1-c1cc(C2CN([C@@H](CCCN3CCN(CCO)CC3)C(C)C)C2)cc2c1cnn2C)C(C)C` [Example 400-1]: the IC50 is 220 nM.

Turning to `CCN(C(=O)c1cc(F)ccc1-c1cc(C2CN([C@@H](CCCN3CCC(OCCO)CC3)C(C)C)C2)cc2c1cnn2C)C(C)C` [Example 401-1], the IC50 came to 130 nM.

On to `CCN(C(=O)c1cc(F)ccc1-c1cc(C2CN([C@@H](CN3CCN(C)CC3)C(C)C)C2)cc2c1cnn2C)C(C)C` [Example 402-1, N-ethyl-5-fluoro-2-(1-methyl-6-{1-[(2R)-3-methyl-1-(4-methylpiperazin-1-yl)butan-2-yl]azacyclobutan-3-yl}-1H-indazol-4-yl)-N-(isopropyl)benzamide], for which the IC50 was 110 nM.

`CCN(C(=O)c1cc(F)ccc1-c1cc(C2CN([C@H](CCCN3CCN(C(C)=O)CC3)C(C)C)C2)cc2c1cnn2C)C(C)C` [Example 407]: the IC50 stood at 33 nM.

For `CCN(C(=O)c1cc(F)ccc1-c1cc(C2CN(C(COC)C(C)C)C2)cn2c(C)ncc12)C(C)C` (stereo not shown) [Example 414, N-ethyl-5-fluoro-2-{6-[1-(1-methoxy-3-methylbutan-2-yl)azacyclobutan-3-yl]-3-methylimidazo[1,5-a]pyridin-8-yl}-N-(isopropyl)benzamide], the IC50 was found to be 11.8 nM.
